Columns and labels:
IRAK4 = IRAK4 (Homo sapiens (Human), UniProt Q9NWZ3); assay: IRAK4 Inhibition Assay; assay type: biochemical; settings: ATP 500 μM; IRAK4 0.6 nM
Method in brief: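 Enzyme 0.6 nM, ATP 500 μM, FL-peptide 1.5 μM, DMSO 1.6%; HEPES pH 7.2/MgCl2/Brij 35/DTT buffer. RT, 60 min, EDTA stop. Mobility-shift product/substrate ratio; % inhib vs no-enzyme and vehicle controls.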

Caco Permeability Assay = assay type: in vitro ADME; settings: human, Caco-2, Caco-2 cells, 3 μM compound
[1] = test system: IL-6 levels in human whole blood stimulated with a TLR2 agonist; assay: IRAK4 Whole Blood Assay (lipoteichoic acid/TLR2-stimulated IL-6); assay type: cell-based; settings: lipoteichoic acid 10 μg/mL, IL-6 readout
Method in brief: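 ACD-A-anticoagulated human whole blood was preincubated with compounds for 60 min at 37 °C under 5% CO2. It was then stimulated with 10 μg/mL lipoteichoic acid (final) in RPMI for 5 h. IL-6 in plasma supernatants was measured by flow cytometry bead assay.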

IRAK4, sequence (Q9NWZ3 whole entry): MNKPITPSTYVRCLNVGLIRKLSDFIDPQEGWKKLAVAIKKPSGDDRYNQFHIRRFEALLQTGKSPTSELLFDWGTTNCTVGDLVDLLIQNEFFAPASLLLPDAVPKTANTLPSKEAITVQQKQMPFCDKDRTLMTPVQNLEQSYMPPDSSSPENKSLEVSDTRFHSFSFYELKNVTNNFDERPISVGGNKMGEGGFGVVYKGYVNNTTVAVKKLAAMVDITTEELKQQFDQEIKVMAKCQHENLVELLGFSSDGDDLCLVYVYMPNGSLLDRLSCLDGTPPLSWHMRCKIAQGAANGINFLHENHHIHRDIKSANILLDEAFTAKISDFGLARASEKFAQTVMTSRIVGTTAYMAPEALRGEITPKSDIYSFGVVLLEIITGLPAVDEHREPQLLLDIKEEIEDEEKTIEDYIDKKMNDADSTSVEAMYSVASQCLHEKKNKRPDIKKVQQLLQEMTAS

SMILES	IC50 (IRAK4) [nM]	Papp at 2 h, 3 µM (Caco Permeability Assay) [×10⁻⁶ cm/s]	EC50 ([1]; Homo sapiens) [nM]	EC50 [1] [nM]
CC(C)(F)Cn1cc(Nc2cc(-c3cnn4cc(Cl)cnc34)ncc2C(=O)NC[C@@H](F)C(C)(C)O)cn1 [Example 227, (R)-6-(6-chloropyrazolo[1,5-a]pyrimidin-3-yl)-4-((1-(2-fluoro-2-methylpropyl)-1H-pyrazol-4-yl)amino)-N-(2-fluoro-3-hydroxy-3-methylbutyl)nicotinamide]	2	4	170	–
CC(C)(F)Cn1ccc(Nc2cc(-c3cnn4cc(Cl)cnc34)ncc2C(=O)NC[C@@H](F)C(C)(C)O)n1 [Example 229, (R)-6-(6-chloropyrazolo[1,5-a]pyrimidin-3-yl)-4-((1-(2-fluoro-2-methylpropyl)-1H-pyrazol-3-yl)amino)-N-(2-fluoro-3-hydroxy-3-methylbutyl)nicotinamide]	9	11.3	580	–
CC(C)(O)[C@H](F)CNC(=O)c1cnc(-c2cnn3cc(C#N)cnc23)cc1Nc1ccn(CC(F)F)n1 [Example 230, (R)-6-(6-cyanopyrazolo[1,5-a]pyrimidin-3-yl)-4-((1-(2,2-difluoroethyl)-1H-pyrazol-3-yl)amino)-N-(2-fluoro-3-hydroxy-3-methylbutyl)nicotinamide]	3	< 1.5	430	–
CC(C)(O)[C@H](F)CNC(=O)c1cnc(-c2cnn3cc(Cl)cnc23)cc1Nc1cnn(C(F)F)c1 [Example 231, (R)-6-(6-chloropyrazolo[1,5-a]pyrimidin-3-yl)-4-((1-(difluoromethyl)-1H-pyrazol-4-yl)amino)-N-(2-fluoro-3-hydroxy-3-methylbutyl) nicotinamide]	1	12.6	340	–
CCn1cc(Nc2cc(-c3cnn4cc(Cl)cnc34)ncc2C(=O)NC[C@@H](F)C(C)(C)O)cn1 [Example 232, (R)-6-(6-chloropyrazolo[1,5-a]pyrimidin-3-yl)-4-((1-ethyl-1H-pyrazol-4-yl)amino)-N-(2-fluoro-3-hydroxy-3-methylbutyl)nicotinamide]	1	3.7	140	–
CC(C)(F)Cn1cc(Nc2cc(-c3cnn4cc(C#N)cnc34)ncc2C(=O)NC[C@@H](F)C(C)(C)O)cn1 [Example 235, (R)-6-(6-cyanopyrazolo[1,5-a]pyrimidin-3-yl)-4-((1-(2-fluoro-2-methylpropyl)-1H-pyrazol-4-yl)amino)-N-(2-fluoro-3-hydroxy-3-methylbutyl)nicotinamide]	2	2.3	200	–
CC(C)(O)[C@H](F)CNC(=O)c1cnc(-c2cnn3cc(C#N)cnc23)cc1Nc1cnn(CC(F)(F)F)c1 [Example 236, (R)-6-(6-cyanopyrazolo[1,5-a]pyrimidin-3-yl)-N-(2-fluoro-3-hydroxy-3-methylbutyl)-4-((1-(2,2,2-trifluoroethyl)-1H-pyrazol-4-yl)amino) nicotinamide]	3	< 1.5	–	660
CC(F)(F)Cn1cc(Nc2cc(-c3cnn4cc(C#N)cnc34)ncc2C(=O)NC[C@@H](F)C(C)(C)O)cn1 [Example 238, (R)-6-(6-cyanopyrazolo[1,5-a]pyrimidin-3-yl)-4-((1-(2,2-difluoropropyl)-1H-pyrazol-4-yl)amino)-N-(2-fluoro-3-hydroxy-3-methylbutyl)nicotinamide]	2	2.1	220	–
CC(F)(F)Cn1cc(Nc2cc(-c3cnn4cc(Cl)cnc34)ncc2C(=O)NC[C@@H](F)C(C)(C)O)cn1 [Example 239, (R)-6-(6-chloropyrazolo[1,5-a]pyrimidin-3-yl)-4-((1-(2,2-difluoropropyl)-1H-pyrazol-4-yl)amino)-N-(2-fluoro-3-hydroxy-3-methylbutyl)nicotinamide]	1	14.4	350	–
Cn1cc(Nc2cc(-c3cnn4cc(C#N)cnc34)ncc2C(=O)NC[C@@H](F)C(C)(C)O)cn1 [Example 240, (R)-6-(6-cyanopyrazolo[1,5-a]pyrimidin-3-yl)-N-(2-fluoro-3-hydroxy-3-methylbutyl)-4-((1-methyl-1H-pyrazol-4-yl)amino)nicotinamide]	2	< 1.5	180	–
COCCn1cc(Nc2cc(-c3cnn4cc(Cl)cnc34)ncc2C(=O)NC[C@@H](F)C(C)(C)O)cn1 [Example 242, (R)-6-(6-chloropyrazolo[1,5-a]pyrimidin-3-yl)-N-(2-fluoro-3-hydroxy-3-methylbutyl)-4-((1-(2-methoxyethyl)-1H-pyrazol-4-yl)amino) nicotinamide]	2	2.1	60	–
COCCn1cc(Nc2cc(-c3cnn4cc(C#N)cnc34)ncc2C(=O)NC[C@@H](F)C(C)(C)O)cn1 [Example 243, (R)-6-(6-cyanopyrazolo[1,5-a]pyrimidin-3-yl)-N-(2-fluoro-3-hydroxy-3-methylbutyl)-4-((1-(2-methoxyethyl)-1H-pyrazol-4-yl)amino)nicotinamide]	3	< 1.5	160	–
Cc1cc(Nc2cc(-c3cnn4cc(C#N)cnc34)ncc2C(=O)NC[C@@H](F)C(C)(C)O)n(C)n1 [Example 244, (R)-6-(6-cyanopyrazolo[1,5-a]pyrimidin-3-yl)-4-((1,3-dimethyl-1H-pyrazol-5-yl)amino)-N-(2-fluoro-3-hydroxy-3-methylbutyl)nicotinamide]	8	< 1.5	380	–
CC(F)(F)Cn1ccc(Nc2cc(-c3cnn4cc(C#N)cnc34)ncc2C(=O)NC[C@@H](F)C(C)(C)O)n1 [Example 245, (R)-6-(6-cyanopyrazolo[1,5-a]pyrimidin-3-yl)-4-((1-(2,2-difluoropropyl)-1H-pyrazol-3-yl)amino)-N-(2-fluoro-3-hydroxy-3-methylbutyl)nicotinamide]	4	1.8	410	–
CC(C)(O)[C@H](F)CNC(=O)c1cnc(-c2cnn3cc(Cl)cnc23)cc1Nc1cnn(C2CC2)c1 [Example 246, (R)-6-(6-chloropyrazolo[1,5-a]pyrimidin-3-yl)-4-((1-cyclopropyl-1H-pyrazol-4-yl)amino)-N-(2-fluoro-3-hydroxy-3-methylbutyl)nicotinamide]	1	4.7	130	–
CC(C)Cn1cc(Nc2cc(-c3cnn4cc(Cl)cnc34)ncc2C(=O)NC[C@@H](F)C(C)(C)O)cn1 [Example 247, (R)-6-(6-chloropyrazolo[1,5-a]pyrimidin-3-yl)-N-(2-fluoro-3-hydroxy-3-methylbutyl)-4-((1-isobutyl-1H-pyrazol-4-yl)amino)nicotinamide]	2	8.1	360	–
CC(C)(O)[C@H](F)CNC(=O)c1cnc(-c2cnn3cc(C#N)cnc23)cc1Nc1cnn(C2CC2)c1 [Example 248, (R)-6-(6-cyanopyrazolo[1,5-a]pyrimidin-3-yl)-4-((1-cyclopropyl-1H-pyrazol-4-yl)amino)-N-(2-fluoro-3-hydroxy-3-methylbutyl)nicotinamide]	2	< 1.5	370	–
CC(C)(O)[C@H](F)CNC(=O)c1cnc(-c2cnn3cc(C#N)cnc23)cc1Nc1cnn(CC2CC2)c1 [Example 249, (R)-6-(6-cyanopyrazolo[1,5-a]pyrimidin-3-yl)-4-((1-(cyclopropylmethyl)-1H-pyrazol-4-yl)amino)-N-(2-fluoro-3-hydroxy-3-methylbutyl)nicotinamide]	2	< 1.5	400	–
CC(C)(O)[C@H](F)CNC(=O)c1cnc(-c2cnn3cc(Cl)cnc23)cc1Nc1cnn(C2CCC2)c1 [Example 250, (R)-6-(6-chloropyrazolo[1,5-a]pyrimidin-3-yl)-4-((1-cyclobutyl-1H-pyrazol-4-yl)amino)-N-(2-fluoro-3-hydroxy-3-methylbutyl)nicotinamide]	1	6.6	200	–
CC(C)(O)[C@H](F)CNC(=O)c1cnc(-c2cnn3cc(Cl)cnc23)cc1Nc1cnn(CC2CC2)c1 [Example 251, (R)-6-(6-chloropyrazolo[1,5-a]pyrimidin-3-yl)-4-((1-(cyclopropylmethyl)-1H-pyrazol-4-yl)amino)-N-(2-fluoro-3-hydroxy-3-methylbutyl)nicotinamide]	1	7.6	410	–
CC(C)(O)CCNC(=O)c1cnc(-c2cnn3cc(Cl)cnc23)cc1Nc1cnn(CC(F)F)c1 [Example 253, 6-(6-chloropyrazolo[1,5-a]pyrimidin-3-yl)-4-((1-(2,2-difluoroethyl)-1H-pyrazol-4-yl)amino)-N-(3-hydroxy-3-methylbutyl)nicotinamide]	1	4.8	160	–
CC(C)(F)[C@H](F)CNC(=O)c1cnc(-c2cnc3cc(C#N)cnn23)cc1Nc1cnn(CC(F)F)c1 [Example 258, (R)-6-(7-cyanoimidazo[1,2-b]pyridazin-3-yl)-N-(2,3-difluoro-3-methylbutyl)-4-((1-(2,2-difluoroethyl)-1H-pyrazol-4-yl)amino)nicotinamide]	2	5.9	180	–
CC(C)(O)[C@H](F)CNC(=O)c1cnc(-c2cnc3cc(C#N)cnn23)cc1Nc1cnn(C2CC(F)(F)C2)c1 [Example 259, (R)-6-(7-cyanoimidazo[1,2-b]pyridazin-3-yl)-4-((1-(3,3-difluorocyclobutyl)-1H-pyrazol-4-yl)amino)-N-(2-fluoro-3-hydroxy-3-methylbutyl)nicotinamide]	2	< 1.5	130	–
